# Measured values: the supplement of paper PMC10307832
# Legend:
# Experiment in all cases: relative viability (nuclei count vs DMSO), 5 days (fraction); higher = more cells survive
# [1] = test system: NCI-H1734
# Summary of the method: (§1)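 Lung cancer cell lines in 1536-well plates got either a single drug or a fixed anchor-drug dose together with five library-drug doses (not always all listed) in √10 steps, by pin tool, on the day after seeding. Nuclei were counted after 5 days, and relative viability is the treated-to-vehicle ratio of nuclei counts. Values are medians of duplicate plates.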
# [2] = test system: EKVX
# Summary of the method: as §1
# [3] = test system: NCI-H2228
# Summary of the method: as §1
# [4] = test system: PC-14
# Summary of the method: as §1
# [5] = test system: NCI-H1355
# Summary of the method: as §1
# [6] = test system: COR-L 105
# Summary of the method: as §1
# [7] = test system: NCI-H2009
# Summary of the method: as §1
# [8] = test system: HCC-15
# Summary of the method: as §1
# [9] = test system: HOP-62
# Summary of the method: as §1
# [10] = test system: SK-MES-1
# Summary of the method: as §1
# [11] = test system: COR-L23
# Summary of the method: as §1
# [12] = test system: NCI-H2170
# Summary of the method: as §1
# [13] = test system: NCI-H1755
# Summary of the method: as §1
# [14] = test system: NCI-H1993
# Summary of the method: as §1
# [15] = test system: UMC-11
# Summary of the method: as §1
# [16] = test system: NCI-H358
# Summary of the method: as §1
# [17] = test system: NCI-H838
# Summary of the method: as §1
# [18] = test system: NCI-H647
# Summary of the method: as §1
# [19] = test system: NCI-H2347
# Summary of the method: as §1
# [20] = test system: HARA
# Summary of the method: as §1
smiles,measurement,setting,value
O=C(O)c1ccc(-c2c[nH]c3ncc(-c4ccccc4)cc23)cc1C1CCCC1 + C[C@@H](Oc1cc(-c2cnn(C3CCNCC3)c2)cnc1N)c1c(Cl)ccc(F)c1Cl [Crizotinib] (partner 1 µM),relative viability,[1]; first compound 0.04 µM,0.752
same,relative viability,[1]; first compound 0.1265 µM,0.705
same,relative viability,[1]; first compound 0.4 µM,0.601
same,relative viability,[1]; first compound 1.265 µM,0.543
same,relative viability,[2]; first compound 0.04 µM,1.13
same,relative viability,[2]; first compound 0.1265 µM,0.891
same,relative viability,[2]; first compound 0.4 µM,0.927
same,relative viability,[2]; first compound 1.265 µM,0.676
same,relative viability,[3]; first compound 0.04 µM,0.62
same,relative viability,[3]; first compound 0.1265 µM,0.556
same,relative viability,[3]; first compound 0.4 µM,0.469
same,relative viability,[3]; first compound 1.265 µM,0.292
same,relative viability,[4]; first compound 0.04 µM,0.931
same,relative viability,[4]; first compound 0.1265 µM,0.849
same,relative viability,[4]; first compound 0.4 µM,0.921
same,relative viability,[4]; first compound 1.265 µM,0.672
same,relative viability,[5]; first compound 0.04 µM,1.05
same,relative viability,[5]; first compound 0.1265 µM,1.14
same,relative viability,[5]; first compound 0.4 µM,1.04
same,relative viability,[5]; first compound 1.265 µM,0.752
same,relative viability,[6]; first compound 0.04 µM,0.857
same,relative viability,[6]; first compound 0.1265 µM,0.789
same,relative viability,[6]; first compound 0.4 µM,0.723
same,relative viability,[6]; first compound 1.265 µM,0.792
same,relative viability,[7]; first compound 0.04 µM,0.994
same,relative viability,[7]; first compound 0.1265 µM,1.05
same,relative viability,[7]; first compound 0.4 µM,0.931
same,relative viability,[7]; first compound 1.265 µM,0.666
same,relative viability,[8]; first compound 0.04 µM,0.845
same,relative viability,[8]; first compound 0.1265 µM,0.79
same,relative viability,[8]; first compound 0.4 µM,0.633
same,relative viability,[8]; first compound 1.265 µM,0.339
same,relative viability,[9]; first compound 0.04 µM,0.902
same,relative viability,[9]; first compound 0.1265 µM,0.901
same,relative viability,[9]; first compound 0.4 µM,0.904
same,relative viability,[9]; first compound 1.265 µM,0.497
same,relative viability,[10]; first compound 0.04 µM,0.942
same,relative viability,[10]; first compound 0.1265 µM,1.01
same,relative viability,[10]; first compound 0.4 µM,0.953
same,relative viability,[10]; first compound 1.265 µM,0.774
same,relative viability,[11]; first compound 0.04 µM,0.584
same,relative viability,[11]; first compound 0.1265 µM,0.508
same,relative viability,[11]; first compound 0.4 µM,0.681
same,relative viability,[11]; first compound 1.265 µM,0.476
same,relative viability,[12]; first compound 0.04 µM,1.12
same,relative viability,[12]; first compound 0.1265 µM,1.24
same,relative viability,[12]; first compound 0.4 µM,1.18
same,relative viability,[12]; first compound 1.265 µM,0.843
same,relative viability,[13]; first compound 0.04 µM,0.883
same,relative viability,[13]; first compound 0.1265 µM,0.924
same,relative viability,[13]; first compound 0.4 µM,0.897
same,relative viability,[13]; first compound 1.265 µM,0.839
same,relative viability,[14]; first compound 0.04 µM,0.805
same,relative viability,[14]; first compound 0.4 µM,0.805
same,relative viability,[14]; first compound 1.265 µM,0.812
same,relative viability,[15]; first compound 0.04 µM,0.587
same,relative viability,[15]; first compound 0.1265 µM,0.629
same,relative viability,[15]; first compound 0.4 µM,0.646
same,relative viability,[15]; first compound 1.265 µM,0.612
same,relative viability,[16]; first compound 0.04 µM,0.633
same,relative viability,[16]; first compound 0.1265 µM,0.579
same,relative viability,[16]; first compound 0.4 µM,0.512
same,relative viability,[16]; first compound 1.265 µM,0.352
same,relative viability,[17]; first compound 0.04 µM,0.794
same,relative viability,[17]; first compound 0.1265 µM,0.952
same,relative viability,[17]; first compound 0.4 µM,0.848
same,relative viability,[17]; first compound 1.265 µM,0.88
same,relative viability,[18]; first compound 0.04 µM,1.01
same,relative viability,[18]; first compound 0.1265 µM,1.08
same,relative viability,[18]; first compound 0.4 µM,0.987
same,relative viability,[18]; first compound 1.265 µM,0.77
same,relative viability,[19]; first compound 0.04 µM,0.621
same,relative viability,[19]; first compound 0.1265 µM,0.707
same,relative viability,[19]; first compound 0.4 µM,0.642
same,relative viability,[19]; first compound 1.265 µM,0.568
same,relative viability,[20]; first compound 0.04 µM,0.985
same,relative viability,[20]; first compound 0.1265 µM,1.04
same,relative viability,[20]; first compound 0.4 µM,1.02
same,relative viability,[20]; first compound 1.265 µM,0.763
